Bridges are numbered along the chain shown (N, C = ends). Where no end group is shown, it is not given here.

The conditions of series [1]: in the presence of oxygen; cited from earlier work.
In series [2] the test system is basilar artery. Nature of the series: Reversal of endothelin-1-induced cerebral vasoconstriction; suffusion of exposed basilar artery in sCSF, video microscopy. In kind it is in vivo, New Zealand White rabbits.
Series [3] has as its system cerebral vasospasm. Nature of the series: ITSNP therapy for alleviation and prevention of cerebral vasospasm after aneurysmal SAH, 16 patients. It is filed as in vivo, human. The note with it: pre-therapy administration.
[4] abbreviates: ET-1 100 nanomolar in sCSF, 1 milliliter per minute, Groups 4, 5, 6, n=38.

`[N]=O` [NO, nitric oxide]: the half-life in vivo result in series [1] is on record as “measured in seconds”.
Regarding `O=[N+]([O-])OCC(CO[N+](=O)[O-])O[N+](=O)[O-]` [NTG, nitroglycerine], in series [2] (rabbit, in vivo), the “change in baseline diameter of the basilar artery, substance alone” value is given as “did not produce changes”; the “reversal of ET-1-induced vasoconstriction” value was “rapid and pronounced vasodilation”.
Regarding `Cc1nccn1CC1CCc2c(c3ccccc3n2C)C1=O` (stereo not drawn) [ondansetron], in series [3], the “effect on nausea associated with ITSNP therapy” value is “abolished”.
As to “Endothelin-1 (CSCSSLMDKECVYFCHLDIIW; disulfide 1-15, 3-11; ends not checked; UniProt P05305 53-73, looked up) [ET-1]”, in series [2] (setting [4]), the “reduction of arterial diameter began, after starting the delivery” value fell in the range of 5 to 8 min and the “reduction of arterial diameter complete within” value was 20 to 30 min. For the same molecule, in series [2] (ET-1 100 nanomolar suffusion), the “average minimal diameter, % of baseline diameter” value stood at 50.4%. For the same molecule, in series [2] (ET-1 100 nanomolar suffusion, baseline 992 microns), the “average minimal diameter of the artery” value amounted to 500 microns. Also, the “return to baseline diameter after ET-1 when followed by sCSF alone” value in series [2] (Group 4, n=15) is above 30 min.
